Values of other authors, collected in patent publication US20250295156A1, “LOADED GRANULES, THEIR PROCESS OF PRODUCTION AND THEIR USES” (Evie SA, priority 2019, published 2025).

Legend:
[1] = humans, orally; no reported psychomotor slowing, negative mood effects, or vital sign abnormalities (Bergamaschi et al., 2011)
[2] = target: cannabinoid CB2 receptor (Homo sapiens, UniProt P34972)
Sequence of cannabinoid CB2 receptor (P34972 whole entry): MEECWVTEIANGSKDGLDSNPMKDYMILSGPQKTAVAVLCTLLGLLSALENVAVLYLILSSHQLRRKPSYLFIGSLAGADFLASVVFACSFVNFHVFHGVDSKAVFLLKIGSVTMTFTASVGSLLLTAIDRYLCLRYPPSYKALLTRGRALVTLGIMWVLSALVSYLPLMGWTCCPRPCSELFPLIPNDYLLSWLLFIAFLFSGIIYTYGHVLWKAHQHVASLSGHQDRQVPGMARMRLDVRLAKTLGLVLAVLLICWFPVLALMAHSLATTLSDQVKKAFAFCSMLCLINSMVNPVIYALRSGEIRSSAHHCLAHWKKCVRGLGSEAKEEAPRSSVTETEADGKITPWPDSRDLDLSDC

C=C(C)[C@@H]1CCC(C)=C[C@H]1c1c(O)cc(CCCCC)cc1O [Cannabidiol]
well tolerated dose [1]: up to 1500 mg/day | affinity for CB2 receptor [2]: very low affinity
